Results from ChEMBL document CHEMBL3885881, “DrugMatrix”.

Organism: Rattus norvegicus
Assay: DrugMatrix - Regimen: Daily Repeat
Assay type: toxicity, organism-based, Sprague-Dawley
Set-up: regimen Daily Repeat, gender Male, age 6-8 weeks
Details: in vivo, po, route oral GAVAGE, vehicle .5 % CMC; for BASOPHIL / EOSINOPHIL / ERYTHROCYTE COUNT / HEMATOCRIT / HEMOGLOBIN / LEUKOCYTE COUNT / LYMPHOCYTE / MEAN CORPUSCULAR HEMOGLOBIN / MEAN CORPUSCULAR HEMOGLOBIN CONCENTRATION / MEAN CORPUSCULAR VOLUME / MONOCYTE / NEUTROPHIL / PLATELET COUNT: tissue Blood; for ALANINE AMINOTRANSFERASE / ALBUMIN / ALKALINE PHOSPHATASE / ASPARTATE AMINOTRANSFERASE / BLOOD UREA NITROGEN / CHLORIDE / CHOLESTEROL / CREATINE PHOSPHOKINASE / CREATININE / GLUCOSE / PHOSPHORUS / POTASSIUM / SODIUM / TOTAL PROTEIN: tissue Plasma
[1] = 0 mg/kg, 72 h, dose level Control, time 3 day
[2] = 0 mg/kg, 120 h, dose level Control, time 5 day
[3] = 3 mg/kg, 72 h, dose level Low, time 3 day
[4] = 3 mg/kg, 120 h, dose level Low, time 5 day
[5] = 37 mg/kg, 72 h, dose level High, time 3 day
[6] = 37 mg/kg, 120 h, dose level High, time 5 day

## CN1CCC(=C2c3ccccc3C=Cc3ccccc32)CC1 [CYPROHEPTADINE]
[1]
  BASOPHIL: 0%
  EOSINOPHIL: 0.33%
  ERYTHROCYTE COUNT: 6.03 x10E6/uL
  HEMATOCRIT: 38.8%
  HEMOGLOBIN: 14.26 G/DL
  LEUKOCYTE COUNT: 10.64 x10E3/uL
  LYMPHOCYTE: 83.33%
  MEAN CORPUSCULAR HEMOGLOBIN: 23.64 pg
  MEAN CORPUSCULAR HEMOGLOBIN CONCENTRATION: 36.74 G/DL
  MEAN CORPUSCULAR VOLUME: 64.32 fL
  MONOCYTE: 3.33%
  NEUTROPHIL: 13%
  PLATELET COUNT: 1264.4 x10E3/uL
  ALANINE AMINOTRANSFERASE: 38.83 u/L
  ALBUMIN: 3.55 G/DL
  ALKALINE PHOSPHATASE: 368.33 u/L
  ASPARTATE AMINOTRANSFERASE: 66.17 u/L
  BLOOD UREA NITROGEN: 15.67 mg/dL
  CHLORIDE: 104.33 MEQ/L
  CHOLESTEROL: 76.5 mg/dL
  CREATINE PHOSPHOKINASE: 166.83 u/L
  CREATININE: 0.52 mg/dL
  GLUCOSE: 173.17 mg/dL
  PHOSPHORUS: 11.68 mg/dL
  POTASSIUM: 6.43 MEQ/L
  SODIUM: 149.5 MEQ/L
  TOTAL PROTEIN: 5.93 G/DL
[2]
  BASOPHIL: 0%
  EOSINOPHIL: 0%
  ERYTHROCYTE COUNT: 5.88 x10E6/uL
  HEMATOCRIT: 37.87%
  HEMOGLOBIN: 14.48 G/DL
  LEUKOCYTE COUNT: 12.43 x10E3/uL
  LYMPHOCYTE: 84.17%
  MEAN CORPUSCULAR HEMOGLOBIN: 24.65 pg
  MEAN CORPUSCULAR HEMOGLOBIN CONCENTRATION: 38.25 G/DL
  MEAN CORPUSCULAR VOLUME: 64.47 fL
  MONOCYTE: 4.33%
  NEUTROPHIL: 11.5%
  PLATELET COUNT: 1182.33 x10E3/uL
  ALANINE AMINOTRANSFERASE: 38.67 u/L
  ALBUMIN: 3.55 G/DL
  ALKALINE PHOSPHATASE: 342.5 u/L
  ASPARTATE AMINOTRANSFERASE: 63.33 u/L
  BLOOD UREA NITROGEN: 15.5 mg/dL
  CHLORIDE: 104 MEQ/L
  CHOLESTEROL: 75.5 mg/dL
  CREATINE PHOSPHOKINASE: 142.5 u/L
  CREATININE: 0.62 mg/dL
  GLUCOSE: 165.17 mg/dL
  PHOSPHORUS: 10.87 mg/dL
  POTASSIUM: 6.85 MEQ/L
  SODIUM: 150.17 MEQ/L
  TOTAL PROTEIN: 5.93 G/DL
[3]
  BASOPHIL: 0%
  EOSINOPHIL: 0%
  ERYTHROCYTE COUNT: 6.1 x10E6/uL
  HEMATOCRIT: 40.23%
  HEMOGLOBIN: 15.13 G/DL
  LEUKOCYTE COUNT: 11.03 x10E3/uL
  LYMPHOCYTE: 89.33%
  MEAN CORPUSCULAR HEMOGLOBIN: 24.8 pg
  MEAN CORPUSCULAR HEMOGLOBIN CONCENTRATION: 37.63 G/DL
  MEAN CORPUSCULAR VOLUME: 65.97 fL
  MONOCYTE: 1%
  NEUTROPHIL: 9.67%
  PLATELET COUNT: 1191.33 x10E3/uL
  ALANINE AMINOTRANSFERASE: 32.67 u/L
  ALBUMIN: 3.6 G/DL
  ALKALINE PHOSPHATASE: 369 u/L
  ASPARTATE AMINOTRANSFERASE: 58 u/L
  BLOOD UREA NITROGEN: 13.33 mg/dL
  CHLORIDE: 105.67 MEQ/L
  CHOLESTEROL: 75.67 mg/dL
  CREATINE PHOSPHOKINASE: 139.67 u/L
  CREATININE: 0.47 mg/dL
  GLUCOSE: 159 mg/dL
  PHOSPHORUS: 11.23 mg/dL
  POTASSIUM: 6.9 MEQ/L
  SODIUM: 151.33 MEQ/L
  TOTAL PROTEIN: 5.8 G/DL
[4]
  BASOPHIL: 0%
  EOSINOPHIL: 0.67%
  ERYTHROCYTE COUNT: 6.35 x10E6/uL
  HEMATOCRIT: 39.23%
  HEMOGLOBIN: 14.37 G/DL
  LEUKOCYTE COUNT: 13.2 x10E3/uL
  LYMPHOCYTE: 89.33%
  MEAN CORPUSCULAR HEMOGLOBIN: 22.67 pg
  MEAN CORPUSCULAR HEMOGLOBIN CONCENTRATION: 36.63 G/DL
  MEAN CORPUSCULAR VOLUME: 61.83 fL
  MONOCYTE: 1%
  NEUTROPHIL: 9%
  PLATELET COUNT: 1248.67 x10E3/uL
  ALANINE AMINOTRANSFERASE: 39.67 u/L
  ALBUMIN: 3.4 G/DL
  ALKALINE PHOSPHATASE: 503.67 u/L
  ASPARTATE AMINOTRANSFERASE: 62.67 u/L
  BLOOD UREA NITROGEN: 13.67 mg/dL
  CHLORIDE: 103.33 MEQ/L
  CHOLESTEROL: 70 mg/dL
  CREATINE PHOSPHOKINASE: 134 u/L
  CREATININE: 0.53 mg/dL
  GLUCOSE: 189.33 mg/dL
  PHOSPHORUS: 12.93 mg/dL
  POTASSIUM: 6.83 MEQ/L
  SODIUM: 147.67 MEQ/L
  TOTAL PROTEIN: 5.63 G/DL
[5]
  BASOPHIL: 0%
  EOSINOPHIL: 0%
  ERYTHROCYTE COUNT: 5.89 x10E6/uL
  HEMATOCRIT: 38%
  HEMOGLOBIN: 13.37 G/DL
  LEUKOCYTE COUNT: 9.03 x10E3/uL
  LYMPHOCYTE: 86%
  MEAN CORPUSCULAR HEMOGLOBIN: 22.7 pg
  MEAN CORPUSCULAR HEMOGLOBIN CONCENTRATION: 35.17 G/DL
  MEAN CORPUSCULAR VOLUME: 64.53 fL
  MONOCYTE: 3.33%
  NEUTROPHIL: 10.67%
  PLATELET COUNT: 1233.33 x10E3/uL
  ALANINE AMINOTRANSFERASE: 33 u/L
  ALBUMIN: 3.67 G/DL
  ALKALINE PHOSPHATASE: 296.33 u/L
  ASPARTATE AMINOTRANSFERASE: 50.33 u/L
  BLOOD UREA NITROGEN: 15 mg/dL
  CHLORIDE: 104.67 MEQ/L
  CHOLESTEROL: 62.67 mg/dL
  CREATINE PHOSPHOKINASE: 128 u/L
  CREATININE: 0.5 mg/dL
  GLUCOSE: 167.33 mg/dL
  PHOSPHORUS: 12.37 mg/dL
  POTASSIUM: 7.2 MEQ/L
  SODIUM: 150.67 MEQ/L
  TOTAL PROTEIN: 5.93 G/DL
[6]
  BASOPHIL: 0%
  EOSINOPHIL: 0.33%
  ERYTHROCYTE COUNT: 5.95 x10E6/uL
  HEMATOCRIT: 37.4%
  HEMOGLOBIN: 13.8 G/DL
  LEUKOCYTE COUNT: 11.57 x10E3/uL
  LYMPHOCYTE: 87.33%
  MEAN CORPUSCULAR HEMOGLOBIN: 23.23 pg
  MEAN CORPUSCULAR HEMOGLOBIN CONCENTRATION: 36.93 G/DL
  MEAN CORPUSCULAR VOLUME: 62.9 fL
  MONOCYTE: 0%
  NEUTROPHIL: 12.33%
  PLATELET COUNT: 1286.67 x10E3/uL
  ALANINE AMINOTRANSFERASE: 35 u/L
  ALBUMIN: 3.4 G/DL
  ALKALINE PHOSPHATASE: 311.67 u/L
  ASPARTATE AMINOTRANSFERASE: 52 u/L
  BLOOD UREA NITROGEN: 14 mg/dL
  CHLORIDE: 102.33 MEQ/L
  CHOLESTEROL: 50.67 mg/dL
  CREATINE PHOSPHOKINASE: 124 u/L
  CREATININE: 0.53 mg/dL
  GLUCOSE: 159.67 mg/dL
  PHOSPHORUS: 12.5 mg/dL
  POTASSIUM: 6.77 MEQ/L
  SODIUM: 148.67 MEQ/L
  TOTAL PROTEIN: 5.7 G/DL
